From patent publication US9296684B2, “Allyl 2-cyanoacrylate prepolymer, preparation method thereof, and bioadhesive composition comprising the prepolymer” (UNIVERSITY-INDUSTRY COOPERATION GROUP OF KYUNG HEE …, priority 2011, dated 2016)

Experiment: Change of viscosity according to time for heating 2-cyanoacrylate prepolymer
Format: physicochemical
Settings: heated at 150° C., FIG. 1
Method: 10 ml of an allyl 2-cyanoacrylate was added to a glass test tube and then sealed in a vacuum state. The sealed glass test tube was put in an oil bath of 150° C. to heat it for 5, 10, 20, 30, 40, 50, 60, and 70 minutes. The heated cyanoacrylate per each given period of time was cooled at room temperature and then the change in viscosity was observed.
An ethyl 2-cyanoacrylate was heated; then the heated cyanoacrylate per each given period of time was cooled at room temperature, and then the change in viscosity was observed, by using an identical method as in Example 1 described above, with the exception that ethyl 2-cyanoacrylate was used instead of allyl 2-cyanoacrylate.
The results of investigating the change in viscosity according to time of heating the 2-cyanoacrylate prepolymer in Example 1 and Comparative Example 1 are shown in FIG. 1. Furthermore, the values of viscosity according to time of heating the 2-cyanoacrylate prepolymer in Example 1 are shown in the following Table 1.

In the case of `C=C(C#N)C(=O)OCC` [ethyl 2-cyanoacrylate], the “change in viscosity with greater heating time” value is reported as “no increase in the viscosity”.
